Source: patent US7943601B2, “2-methylene-20-methyl-19,24,25,26,27-pentanor-vitamin D analogs” (Wisconsin Alumni Research Foundation, priority 2007, dated 2011)
Like-named read-outs stand apart in the source and are kept apart here.

What was measured:
[1] = system: HL-60 cells; experiment: HL-60 differentiation (nitro blue tetrazolium reduction); type: cell-based, human; details: four days, read-out: EC50, HL-60 cell differentiation
Procedure: The study drugs were dissolved in ethanol and the concentrations determined using UV spectrophotometry. Serial dilutions were prepared so that a range of drug concentrations could be tested without changing the final concentration of ethanol (≦0.2%) present in the cell cultures.
Human promyelocytic leukemia (HL60) cells were grown in RPMI-1640 medium containing 10% fetal bovine serum. The cells were incubated at 37° C. in the presence of 5% CO2.
HL60 cells were plated at 1.2×10^5 cells/ml. Eighteen hours after plating, cells in duplicate were treated with drug. Four days later, the cells were harvested and a nitro blue tetrazolium reduction assay was performed (Collins et al., 1979; J. Exp. Med. 149:969-974). The percentage of differentiated cells was determined by counting a total of 200 cells and recording the number that contained intracellular black-blue formazan deposits. Verification of differentiation to monocytic cells was determined by measuring phagocytic activity (data not shown).

[2] = system: vitamin D-deficient rats; experiment: Intestinal calcium transport (everted gut sac method); type: in vivo, rat
Procedure: (§1) Male, weanling Sprague-Dawley rats were placed on Diet 11 (0.47% Ca) diet+AEK oil for one week followed by Diet 11 (0.02% Ca)+AEK oil for 3 weeks. The rats were then switched to a diet containing 0.47% Ca for one week followed by two weeks on a diet containing 0.02% Ca. Dose administration began during the last week on 0.02% calcium diet. Four consecutive ip doses were given approximately 24 hours apart. Twenty-four hours after the last dose, blood was collected from the severed neck and the concentration of serum calcium determined as a measure of bone calcium mobilization. The first 10 cm of the intestine was also collected for intestinal calcium transport analysis using the everted gut sac method.

[3] = system: vitamin D-deficient rats; experiment: Bone calcium mobilization (serum calcium); type: in vivo, rat; details: rats on low calcium diet (0.02%); for bone calcium mobilization (serum calcium levels): all dose levels tested, four ip doses
Procedure: as §1

[4] = system: 24-hydroxylase (24Ohase) gene promoter; experiment: In vitro transcription assay, luciferase reporter in ROS 17/2.8 (bone) cells; type: cell-based; details: ROS 17/2.8 cells, sixteen hours after dosing; read-out: EC50, transcriptional activity in bone cells (24-hydroxylase gene)
Procedure: Transcription activity was measured in ROS 17/2.8 (bone) cells that were stably transfected with a 24-hydroxylase (24Ohase) gene promoter upstream of a luciferase reporter gene (Arbour et al., 1998). Cells were given a range of doses. Sixteen hours after dosing the cells were harvested and luciferase activities were measured using a luminometer.
RLU=relative luciferase units.

[5] = target: T1, full-length recombinant rat vitamin D receptor (Rattus norvegicus, UniProt P13053); experiment: Vitamin D receptor binding, competition with [3H]-1,25(OH)2D3
T1 construct: Full-length recombinant rat receptor was expressed in E. coli; histidine tag (C); made in house; host or cells: E. coli BL21 (DE3) Codon Plus RIL
T1 sequence (P13053 1-423): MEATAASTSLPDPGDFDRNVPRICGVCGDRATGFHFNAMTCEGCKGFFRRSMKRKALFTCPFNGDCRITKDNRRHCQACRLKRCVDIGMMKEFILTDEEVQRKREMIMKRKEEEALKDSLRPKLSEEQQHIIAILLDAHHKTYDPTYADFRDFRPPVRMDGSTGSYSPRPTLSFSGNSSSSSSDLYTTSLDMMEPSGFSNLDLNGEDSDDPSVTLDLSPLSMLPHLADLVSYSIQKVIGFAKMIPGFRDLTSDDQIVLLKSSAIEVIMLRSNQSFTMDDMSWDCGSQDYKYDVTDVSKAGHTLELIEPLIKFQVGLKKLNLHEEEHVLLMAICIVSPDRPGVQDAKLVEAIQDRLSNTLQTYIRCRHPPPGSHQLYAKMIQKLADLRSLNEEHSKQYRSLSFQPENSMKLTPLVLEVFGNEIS
Procedure: Full-length recombinant rat receptor was expressed in E. coli BL21 (DE3) Codon Plus RIL cells and purified to homogeneity using two different column chromatography systems. The first system was a nickel affinity resin that utilizes the C-terminal histidine tag on this protein. The protein that was eluted from this resin was further purified using ion exchange chromatography (S-Sepharose Fast Flow). Aliquots of the purified protein were quick frozen in liquid nitrogen and stored at −80° C. until use. For use in binding assays, the protein was diluted in TEDK50 (50 mM Tris, 1.5 mM EDTA, pH7.4, 5 mM DTT, 150 mM KCl) with 0.1% Chaps detergent. The receptor protein and ligand concentration were optimized such that no more than 20% of the added radiolabeled ligand was bound to the receptor.
Radiolabeled and unlabeled ligands were added to 100 mcl of the diluted protein at a final ethanol concentration of ≦10%, mixed and incubated overnight on ice to reach binding equilibrium. The following day, 100 mcl of hydroxylapatite slurry (50%) was added to each tube and mixed at 10-minute intervals for 30 minutes. The hydroxylapaptite was collected by centrifugation and then washed three times with Tris-EDTA buffer (50 mM Tris, 1.5 mM EDTA, pH 7.4) containing 0.5% Titron X-100. […] Total binding was determined from the tubes containing only radiolabeled ligand.

[6] = 260 pmol/day ip for 4 consecutive days, everted gut sac

Row | EC50 ([1]; Homo sapiens, 96 h) [nM] | affinity for the vitamin D receptor relative to 1,25(OH)2D3 ([5]; compared to 1,25(OH)2D3) | Ki ([5]; full-length recombinant rat vitamin D receptor, read-out: Ki, competition with [3H]-1,25(OH)2D3 for binding to VDR) [nM] | Structure (SMILES) | EC50 [1] [nM] | intestinal calcium transport [2, 6] | bone calcium mobilization (serum calcium levels) [3] | EC50 [4] [nM] | intestinal calcium transport ([2]; 7020 pmol/day ip for 4 consecutive days, everted gut sac) | intestinal calcium transport ([2]; four consecutive ip doses, doses tested, compared to 1,25(OH)2D3) | bone calcium mobilization ([3]; 260 pmol/day ip for 4 consecutive days) | bone calcium mobilization ([3]; 7020 pmol/day ip for 4 consecutive days)
1 | – | – | – | C=C1/C(=C\C=C2/CCC[C@]3(C)[C@@H]([C@H](C)CCCC(C)(C)O)CC[C@@H]23)C[C@@H](O)C[C@@H]1O [1,25(OH)2D3, 1α,25-dihydroxyvitamin D3, reference compound] | 4 | promotes a significant increase | increased serum calcium levels at all dosages | 0.2 | – | – | – | –
2 | 10 | approximately one-half log less affinity | 0.08 | C=C1[C@H](O)CC(=C/C=C2\CCC[C@]3(C)[C@@H](C(C)(C)CC)CC[C@@H]23)C[C@H]1O [20DCM, 2-methylene-20-methyl-1α-hydroxy-19,24,25,26,27-pentanor-vitamin D3] | – | promotes intestinal calcium transport only slightly | does not have any measurable activity | 4 | no significant intestinal calcium transport activity | very little activity | did not result in mobilization of bone calcium | without effect
